Assay results taken from patent publication US20240101528A1, “SUBSTITUTED PYRAZOLO PIPERIDINE CARBOXYLIC ACIDS” (BAYER AKTIENGESELLSCHAFT, priority 2020, published 2024).
Counter-ions that a name gives are not always drawn.

Molecular target: T1, recombinant guanylate cyclase reporter cell line (Rattus norvegicus, UniProt P20595)
T1 construct: expressed in transfected cells
T1 sequence (P20595 1-619): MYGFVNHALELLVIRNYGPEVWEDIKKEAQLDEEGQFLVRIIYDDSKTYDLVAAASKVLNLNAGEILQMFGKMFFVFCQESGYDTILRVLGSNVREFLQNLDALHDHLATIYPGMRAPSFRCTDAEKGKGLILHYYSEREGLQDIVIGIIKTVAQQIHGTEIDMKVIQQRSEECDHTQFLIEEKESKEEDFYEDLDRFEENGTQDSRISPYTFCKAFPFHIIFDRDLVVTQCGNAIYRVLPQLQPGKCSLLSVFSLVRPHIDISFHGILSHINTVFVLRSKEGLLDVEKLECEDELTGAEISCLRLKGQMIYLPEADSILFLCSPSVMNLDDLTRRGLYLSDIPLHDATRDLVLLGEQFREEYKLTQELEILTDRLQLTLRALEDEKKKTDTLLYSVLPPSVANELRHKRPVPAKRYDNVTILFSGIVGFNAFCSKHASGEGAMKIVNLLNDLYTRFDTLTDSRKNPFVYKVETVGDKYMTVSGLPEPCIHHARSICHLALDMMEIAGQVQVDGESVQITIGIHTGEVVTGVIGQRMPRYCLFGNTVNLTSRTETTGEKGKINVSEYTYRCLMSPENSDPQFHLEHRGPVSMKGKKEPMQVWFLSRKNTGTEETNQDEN
T1 sequence (P19686 1-690 partner): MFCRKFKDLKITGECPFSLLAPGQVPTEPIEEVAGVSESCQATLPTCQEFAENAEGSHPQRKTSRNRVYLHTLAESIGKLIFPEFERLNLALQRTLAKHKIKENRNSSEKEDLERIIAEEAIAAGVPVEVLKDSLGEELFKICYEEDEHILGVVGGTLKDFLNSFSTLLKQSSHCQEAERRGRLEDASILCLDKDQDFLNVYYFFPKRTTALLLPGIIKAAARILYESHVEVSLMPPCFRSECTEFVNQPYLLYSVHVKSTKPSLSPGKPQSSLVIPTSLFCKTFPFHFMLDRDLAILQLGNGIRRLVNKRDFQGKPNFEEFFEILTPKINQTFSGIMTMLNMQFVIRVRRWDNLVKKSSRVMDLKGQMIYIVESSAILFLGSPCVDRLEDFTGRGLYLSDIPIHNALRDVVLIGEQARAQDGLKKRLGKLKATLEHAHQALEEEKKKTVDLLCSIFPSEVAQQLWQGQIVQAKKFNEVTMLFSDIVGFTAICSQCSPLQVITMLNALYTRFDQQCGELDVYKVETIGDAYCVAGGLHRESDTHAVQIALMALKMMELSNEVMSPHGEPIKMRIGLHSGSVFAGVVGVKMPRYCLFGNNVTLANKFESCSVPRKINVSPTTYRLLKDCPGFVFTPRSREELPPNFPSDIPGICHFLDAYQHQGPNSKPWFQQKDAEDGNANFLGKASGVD
Experiment: Effect on a recombinant guanylate cyclase reporter cell line
Assay type: cell-based
Details: for EC50: half maximal effective concentration; for MEC: minimum effective concentration
Method: B-1. Effect on a Recombinant Guanylate Cyclase Reporter Cell Line
The cellular activity of the compounds according to the invention was determined using a recombinant guanylate cyclase reporter cell line, as described in F. Wunder et al., Anal. Biochem. 339, 104-112 (2005).

Structure (SMILES) | EC50 [nM] | MEC [nM]
O=C(O)c1cnn(C2CCCN(c3cc(Cl)ccc3-c3ccc(N4CCN(CC56CC(F)(C5)C6)CC4)cc3)C2)c1C(F)F (single isomer, unassigned; enantiomer 2) [Example 17, 1-[1-(4-Chloro-4′-{4-[(3-fluorobicyclo[1.1.1]pentan-1-yl)methyl]piperazin-1-yl}[biphenyl]-2-yl)piperidin-3-yl]-5-(difluoromethyl)-1H-pyrazole-4-carboxylic acid hydrochloride (Enantiomer 2)] | 10.2 | 1.0
O=C(O)c1cnn(C2CCCN(c3cc(Cl)ccc3-c3ccc(N4CCCC4)cc3)C2)c1C(F)F (single isomer, unassigned; enantiomer 1) [Example 44, 1-{1-[4-Chloro-4′-(pyrrolidin-1-yl)[biphenyl]-2-yl]piperidin-3-yl}-5-(difluoromethyl)-1H-pyrazole-4-carboxylic acid (Enantiomer 1)] | 45 | 10.0
O=C(O)c1cnn(C2CCCN(c3cc(Cl)ccc3-c3ccc(N4CCN(CC(F)(F)F)CC4)nc3)C2)c1C(F)F (single isomer, unassigned; enantiomer 2) [Example 65, 1-[1-(5-Chloro-2-{6-[4-(2,2,2-trifluoroethyl)piperazin-1-yl]pyridin-3-yl}phenyl)piperidin-3-yl]-5-(difluoromethyl)-1H-pyrazole-4-carboxylic acid hydrochloride (Enantiomer 2)] | 6.9 | 1.0
O=C(O)c1cnn(C2CCCN(c3cc(Cl)ccc3-c3ccc(N4CCN(CCC(F)(F)F)CC4)nc3)C2)c1C(F)F (single isomer, unassigned; enantiomer 1) [Example 66, 1-[1-(5-Chloro-2-{6-[4-(3,3,3-trifluoropropyl)piperazin-1-yl]pyridin-3-yl}phenyl)piperidin-3-yl]-5-(difluoromethyl)-1H-pyrazole-4-carboxylic acid hydrochloride (Enantiomer 1)] | < 1 | <0.3
Cc1cc(N2CCN(CC(F)(F)F)CC2)ncc1-c1ccc(Cl)cc1N1CCCC(n2ncc(C(=O)O)c2C(F)F)C1 (single isomer, unassigned; enantiomer 2) [Example 69, 1-[1-(5-Chloro-2-{4-methyl-6-[4-(2,2,2-trifluoroethyl)piperazin-1-yl]pyridin-3-yl}phenyl)piperidin-3-yl]-5-(difluoromethyl)-1H-pyrazole-4-carboxylic acid hydrochloride (Enantiomer 2)] | 45.5 | 30.0
CC(C)CC(=O)N1CCN(c2ccc(-c3ccc(Cl)cc3N3CCCC(n4ncc(C(=O)O)c4C(F)F)C3)cc2)CC1 (single isomer, unassigned; enantiomer 2) [Example 51, 1-(1-{4-Chloro-4′-[4-(3-methylbutanoyl)piperazin-1-yl][biphenyl]-2-yl}piperidin-3-yl)-5-(difluoromethyl)-1H-pyrazole-4-carboxylic acid (Enantiomer 2)] | 28.4 | 3.0
CC(F)(F)CN1CCN(c2ccc(-c3ccc(Cl)cc3N3CCCC(n4ncc(C(=O)O)c4C(F)F)C3)cc2)CC1 (single isomer, unassigned; enantiomer 1) [Example 24, 1-(1-{4-Chloro-4′-[4-(2,2-difluoropropyl)piperazin-1-yl][biphenyl]-2-yl}piperidin-3-yl)-5-(difluoromethyl)-1H-pyrazole-4-carboxylic acid hydrochloride (Enantiomer 1)] | 1.8 | 0.3
CCN1CCN(c2ccc(-c3ccc(Cl)cc3N3CC(n4ncc(C(=O)O)c4C(F)F)CC(F)(F)C3)cc2)CC1 (single isomer, unassigned; enantiomer 2) [Example 53, 1-{1-[4-chloro-4′-(4-ethylpiperazin-1-yl)[biphenyl]-2-yl]-5,5-difluoropiperidin-3-yl}-5-(difluoromethyl)-1H-pyrazole-4-carboxylic acid hydrochloride (Enantiomer 2)] | 34 | 10.0
O=C(O)c1cnn(C2CCCN(c3cc(Cl)ccc3-c3ccc(N4CCCC4)cc3)C2)c1C(F)F (single isomer, unassigned; enantiomer 2) [Example 45, 1-{1-[4-Chloro-4′-(pyrrolidin-1-yl)[biphenyl]-2-yl]piperidin-3-yl}-5-(difluoromethyl)-1H-pyrazole-4-carboxylic acid (Enantiomer 2)] | 42.5 | 3.0
O=C(O)c1cnn(C2CCCN(c3cc(Cl)ccc3-c3ccc(N4CCN(CCC(F)F)CC4)cc3)C2)c1C(F)F (single isomer, unassigned; enantiomer 2) [Example 22, 1-(1-{4-Chloro-4′-[4-(3,3-difluoropropyl)piperazin-1-yl][biphenyl]-2-yl}piperidin-3-yl)-5-(difluoromethyl)-1H-pyrazole-4-carboxylic acid hydrochloride (Enantiomer 2)] | 1 | <0.3
O=C(O)c1cnn(C2CCCN(c3cc(Cl)ccc3-c3ccc(N4CCN(CC5CC5F)CC4)cc3)C2)c1C(F)F (mixture of isomers) [Example 32, 1-[1-[5-chloro-2-[4-[4-[(trans-2-fluorocyclopropyl)methyl]piperazin-1-yl]phenyl]phenyl]-3-piperidyl]-5-(difluoromethyl)pyrazole-4-carboxylic acid hydrochloride (Diastereoisomeric mixture 2)] | 2.7 | 0.3
CC(C)CN1CCN(c2ccc(-c3ccc(Cl)cc3N3CC(n4ncc(C(=O)O)c4C(F)F)CC(F)(F)C3)cc2)CC1 (single isomer, unassigned; enantiomer 2) [Example 55, 1-{1-[4-Chloro-4′-(4-isobutylpiperazin-1-yl)[biphenyl]-2-yl]-5,5-difluoropiperidin-3-yl}-5-(difluoromethyl)-1H-pyrazole-4-carboxylic acid hydrochloride (Enantiomer 2)] | 56.5 | 10.0
CC(=O)N1CCN(c2ccc(-c3ccc(Cl)cc3N3CCCC(n4ncc(C(=O)O)c4C(F)F)C3)cn2)CC1 (single isomer, unassigned; enantiomer 2) [Example 68, 1-(1-{2-[6-(4-Acetylpiperazin-1-yl)pyridin-3-yl]-5-chlorophenyl}piperidin-3-yl)-5-(difluoromethyl)-1H-pyrazole-4-carboxylic acid hydrochloride (Enantiomer 2)] | 68 | 30.0
O=C(O)c1cnn(C2CCCN(c3cc(Cl)ccc3-c3ccc(C4CN(CC(F)(F)F)C4)cc3)C2)c1C(F)F (single isomer, unassigned; enantiomer 2) [Example 58, 1-(1-{4-Chloro-4′-[1-(2,2,2-trifluoroethyl)azetidin-3-yl][biphenyl]-2-yl}piperidin-3-yl)-5-(difluoromethyl)-1H-pyrazole-4-carboxylic acid hydrochloride (Enantiomer 2)] | 31.5 | 3.0
CC(C)(C)CN1CCN(c2ccc(-c3ccc(Cl)cc3N3CCCC(n4ncc(C(=O)O)c4C(F)F)C3)cc2)CC1 (single isomer, unassigned; enantiomer 1) [Example 12, 1-[(1-{4-Chloro-4′-[4-(2,2-dimethylpropyl)piperazin-1-yl][biphenyl]-2-yl}piperidin-3-yl]-5-(difluoromethyl)-1H-pyrazole-4-carboxylic acid hydrochloride (Enantiomer 1)] | 61.5 | 10.0
CC(C)N1CCN(c2ccc(-c3ccc(Cl)cc3N3CCCC(n4ncc(C(=O)O)c4C(F)F)C3)cc2)CC1 (single isomer, unassigned; enantiomer 2) [Example 6, 1-{1-[4-Chloro-4′-(4-isopropylpiperazin-1-yl)[biphenyl]-2-yl]piperidin-3-yl}-5-(difluoromethyl)-1H-pyrazole-4-carboxylic acid (Enantiomer 2)] | 33.5 | 3.0
